By MIC90 is commonly meant an inhibitory concentration at the 90% level, which refers to growth in some studies and to a panel of isolates in others. Read a low MIC90 as greater potency.

Converted amounts (≈) assume the structure as drawn.

Data on 2 compounds can be found in US11491105B2, “Methods of treating microbial infections, including mastitis” (priority 2013, dated 2022).

Data set [1] concerns red blood cells. Briefly: Eukaryotic cell toxicity testing (erythrocyte haemolysis). In kind it is cell-based. Particulars: 2% blood cell solution, 37° C., one hour. How it is done: Erythrocyte haemolysis was used in order to test the toxicity of all five compounds to eukaryotic cells. Blood samples were washed using 9.1 g/L saline solution and centrifuged at 2500 rpm for 10 minutes. This process was repeated until cellular debris and partially lysed cells were removed from solution. 2 mL of the remaining blood cells were suspended in 98 mL of 9.1 g/L saline solution to produce a 2% blood cell solution, which was dispensed in 90 μL volumes into the wells of a 96 well plate. The compound solutions as well as chloramphenicol were prepared from stock solution to a concentration of 256 μg/mL (as described above). Chloramphenicol was used as a negative control for erythrocyte lysis while a ready to use solution of amphotericin B was used as a positive control. 90 μL of the compounds and controls were added to the final well in different rows. These compounds were serially diluted across the row in order to test the different concentrations of antimicrobials. Wells containing only 2% blood solution were also used to assess variation between readings from different columns on the 96 well plates. These tests were incubated at 37° C. for one hour and then assessed for lysis both visually and using a microplate reader to measure optical density at 600 nm wavelengths. Each test was performed in duplicate and then repeated in quadruplicate in order to ensure accuracy.

The conditions of data set [2]: APVMA, December 2013, MRL Standard 2012; cited from earlier work.
Data set [3] is described as follows: Residue depletion of LP1369 in milk of treated mastitis quarters (Example 9). More on the design: species or system lactating dairy cows. The note with it: in vivo. How it is done: Data on concentrations of LP1369 in milk from 6 quarters for IVP 1 and IVP 2 treated at 6 occasions (6 consecutive milkings) after treatment was provided by the analytical laboratory at the School of Pharmacy, University of South Australia, Adelaide, SA, Australia. The limit of quantification (LoQ) of the method for LP1369 in milk was 0.088 mg/L. The Maximum Residues level (MRL) for LP1369 is 0.010 mg/kg according to the APVMA, December 2013, Agricultural and Veterinary Chemicals Code Instrument No. 4 (MRL Standard) 2012.
In milk samples where LP1369 levels were below the LoQ, LP1369 concentration was set to 0.0001 mg/L.
Therefore, the concentrations of LP1369 in whole milk were log-transformed before calculating means and standard deviations (weighted by the volume of milk produced by each animal) for each time point, using Microsoft Excel 2010.
The determination of the depletion of any substance from milk is affected by the size of the population studied. As the number of sampled cows in this study was small, the g′ factor (a factor that provides a 99% confidence interval so that results are likely to be representative of the population) was applied to the analysis. The possibility of dispersed data was minimised by fixing the g′ factor for a population of 20 animals.
The following assumptions were made. […]

The test system of data set [4] is bovine mastitis isolates. As to the kind of experiment: Minimum inhibitory concentration assay (Example 3). Format: cell-based. Particulars: for MIC90: 51 Australian bovine mastitis isolates. An excerpt: Fifty-one dairy bovine mastitis isolates, encompassing a variety of bacterial species, were isolated from milk samples collected from dairy farms in rural South Australia by the University of Adelaide Ambulatory Clinic. Cellular morphology observed from Gram stains and catalase testing was used to differentiate Staphylococcus, Streptococcus and Corynebacterium species from Gram-negative species. Further biochemical testing including coagulase, Lancefield grouping, esculin hydrolysis and CAMP tests were used to identify the isolates to species level. Where biochemical test results were not definitive in identifying species, amplification and sequencing of the 16S ribosomal RNA gene was used to confirm the identity of the isolates.
Minimum inhibitory concentration tests were performed in the manner outlined by the CLSI (CLSI 2012). Test compounds were dispensed into a 96-well microtitre tray containing 90 μl of CAMHB in 90 μl volumes and serial diluted to obtain a concentration gradient ranging from 128 μg/ml to 0.25 μg/ml (see FIG. 24). For Streptococcus species, CAMHB was replaced with a CAMHB supplement with 4% lysed-sheep blood (4% LSB:CAMHB). 4% LSB:CAMHB was prepared by mixing 5 ml sheep blood to 5 ml milliQ water, and repeated freezing at −20° C. and thawing, followed by centrifuged for 20 min at 7000 rpm. 7 ml of the supernatant was removed and added to 93 mL of CAMB.
Bacterial suspensions were prepared by emulsifying fresh colonies obtained from an overnight culture on Sheep Blood Agar (SBA) in 4 mls of 9.1 g/l physiological saline to an optical density read at 600 nm (OD600nm) between 1.00 and 1.20. Standardised bacterial suspensions were diluted 1:10 in physiological saline and dispensed into all wells, excluding the negative control wells, in 10 μL volumes giving a final concentration of between 4×10^5 and 5×10^5 CFU/mL in each well. 96-well microtitre trays were incubated for 24 hours at 37° C. in 5% CO2 and then assessed both visually and using OD readings from a microplate reader at a wavelength of 600 nm. These tests were performed in duplicate and repeated if discrepancies in MIC values were observed between replicates.
The minimum inhibitory concentration (MIC) was determined to be the lowest concentration of antibiotic that prevented growth of bacteria both visually and using OD readings. MIC values were collated and used to determine the lowest concentration of each compound effective against 50% and 90% of isolates, known as the MIC50 and MIC90 respectively. These values as well as the range of MIC values were then used for direct comparisons between test compounds and for general comparisons with ampicillin.

For data set [5], the system named is MRSA 9. As to the kind of experiment: Microdilution time-kill assay. Particulars: 1×MIC; increase evident after 24 hours. Format: cell-based, Staphylococcus aureus. How it is done: Following assessment of MIC and MBC results, two compounds were chosen for analysis using microdilution time-kill assays, LP 1369 and LP 6315 and these were compared to ampicillin. Time-kill assays were performed according to the M26-A guidelines of the CLSI, with modifications. The test compounds and ampicillin were serial diluted in CAMHB across the rows of a 96 well plate and a bacterial suspension was prepared and added in the same manner as the MIC testing. […] The time points assessed were 0, 1, 2, 4, 8, 12, 24 and 48 hours after the addition of the bacterial suspension to the wells. Each test compound was tested in triplicate while ampicillin was tested in duplicate and this test was independently repeated. The bacterial strains used for the microdilution assays were chosen based on bactericidal activity evident during MBC testing. One strain from each of the categories of Staphylococcus in the isolate collection (methicillin-sensitive, methicillin resistant and coagulase negative) were selected as well as the ATCC reference strain for comparison. These strains were strains MSS 1, MSS 11, MRSA 9 and the ATCC 49775 reference strain.
(Broth dilution looks for growth in wells or tubes with falling amounts of substance.)

In the case of `CC[C@@H](C(=O)[C@@H](C)[C@@H](O)[C@H](C)CCc1ccc(C)c(O)c1C(=O)O)[C@H]1O[C@](CC)([C@H]2CC[C@](O)(CC)[C@H](C)O2)C[C@@H]1C` [LP 1369, Lasalocid], in data set [1], the “concentration at which lysis was most visually evident” value turned out to be 64000 ng/mL and the “concentration range in which some lysis of cells was observed” value lay in the range of 32000 to 128000 ng/mL. In data set [2], the “Maximum Residues level (MRL)” value is on record as 0.010 mg/kg. Besides, the “clearance from treated quarters with mastitis (in words)” value in data set [3] is given as “cleared rapidly”. Besides, in data set [4], the “MIC values (in words)” value is listed as “low MIC values”, the “antibacterial activity against the bovine mastitis isolates” value is “observed” and the MIC90 was determined as 4 µg/mL (≈ 6.77 µM).

Consider `CO[C@@H]1[C@@H](OC)[C@H](C)[C@@](O)(CC(=O)O)O[C@H]1[C@H](C)[C@H]1O[C@@]2(CC[C@@](C)([C@H]3CC[C@@](C)([C@@H]4O[C@@H]([C@H]5O[C@](C)(O)[C@H](C)C[C@@H]5C)C[C@@H]4O[C@@H]4C[C@H](OC)[C@@H](OC)[C@H](C)O4)O3)O2)C[C@H](O)[C@H]1C.N` [LP 6315, Maduramicin], for which, in data set [4], the “MIC values (in words)” value is “low MIC values”, the “antibacterial activity against the bovine mastitis isolates” value is listed as “observed” and the MIC90 worked out at 4 µg/mL. Moreover, in data set [5], the “growth at 1×MIC” value is given as “after 48 hours this growth was no longer observed”.
